Test results from publication PMC8839256, “Concept of Fluorescent Transport Activity Biosensor for the Characterization of the Arabidopsis NPF1.3 Activity of Nitrate” (Sensors (Basel, Switzerland), 2022).

Biological target: T1, NPF1.3 (Arabidopsis thaliana, UniProt Q9LYD5)
T1 construct: full-length cDNA in pOO2-GW; cRNA expressed in Xenopus laevis oocytes
T1 sequence (Q9LYD5 1-481): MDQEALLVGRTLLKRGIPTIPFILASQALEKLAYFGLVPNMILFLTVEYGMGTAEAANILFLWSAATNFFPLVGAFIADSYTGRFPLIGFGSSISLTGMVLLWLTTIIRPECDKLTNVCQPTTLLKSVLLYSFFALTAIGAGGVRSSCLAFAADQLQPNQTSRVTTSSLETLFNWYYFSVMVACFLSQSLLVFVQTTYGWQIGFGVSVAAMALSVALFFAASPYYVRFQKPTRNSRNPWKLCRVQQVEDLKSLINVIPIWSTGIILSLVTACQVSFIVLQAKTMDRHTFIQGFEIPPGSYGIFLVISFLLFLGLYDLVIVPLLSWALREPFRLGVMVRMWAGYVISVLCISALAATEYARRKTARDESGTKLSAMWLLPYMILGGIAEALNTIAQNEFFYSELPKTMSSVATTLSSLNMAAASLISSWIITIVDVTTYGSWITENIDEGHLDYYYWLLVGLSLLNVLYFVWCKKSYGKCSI
Assay: two-electrode voltage clamp, inward current in Xenopus oocytes
Type: cell-based
Conditions: 5 mM CsNO3 (Figure 5 legend, methods; text says KNO3); -120 mV

O=[N+]([O-])O [nitrate]
two-electrode voltage clamp, inward current in Xenopus oocytes: the nitrate-dependent inward currents were observed by KNO3 in NPF1.3-injected oocytes
